Source: US20060069132A1, “Azolecarboxamide herbicides” (priority 2004, published 2006)

Key:
velvetleaf [1] = assay: Test A pre-/postemergence herbicide test; assay type: in vivo, Abutilon theophrasti
In short: (§1)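 Visual injury scores on a 0–100 scale (100 = complete control) taken about ten days post-treatment in greenhouse against untreated controls; dash means no result. Treatments: preemergence soil spray and postemergence spray to runoff on one- to two-leaf plants 2 to 10 cm tall, surfactant-containing formulation.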

velvetleaf [2] = assay: Test C pre-/postemergence herbicide test; assay type: in vivo, Abutilon theophrasti; conditions: for Velvetleaf plant response rating: 500 g ai/ha
In short: (§2)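 Visual ratings on a 0–100 scale (100 = complete control) made versus untreated controls after 12 to 14 greenhouse days. Test chemicals, formulated in surfactant-containing non-phytotoxic solvent, applied preemergence to planted seeds or postemergence to 1- to 4-leaf plants (2 to 18 cm).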

cocklebur = assay: Test C pre-/postemergence herbicide test; assay type: in vivo, Xanthium strumarium; conditions: for Cocklebur plant response rating: 500 g ai/ha
In short: as §2

corn = assay: Test C pre-/postemergence herbicide test; assay type: in vivo, Zea mays; conditions: for Corn plant response rating: 500 g ai/ha
In short: as §2

barnyardgrass [3] = assay: Test C flooded paddy test; assay type: in vivo, Echinochloa crus-galli
In short: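 Greenhouse test with a 12–14 day hold after application and visual comparison with controls. Emerged plants were 1- to 4-leaf stage (2–18 cm) when sprayed postemergence, and the paddy barnyardgrass was at 2 leaves under flooded conditions. 100 = complete control.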

large crabgrass = assay: Test C pre-/postemergence herbicide test; assay type: in vivo, Digitaria sanguinalis; conditions: for Crabgrass, Large plant response rating: 500 g ai/ha
In short: as §2

redroot pigweed = assay: Test A pre-/postemergence herbicide test; assay type: in vivo, Amaranthus retroflexus
In short: as §1

rice = assay: Test C flooded paddy test; assay type: in vivo, Oryza sativa
In short: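 Injury scored visually against controls on a 0 (no effect) to 100 (complete control) scale, 12 to 14 days after treatment in greenhouse. Flooded paddy plants treated at 2-leaf stage; postemergence plants at 1- to 4-leaf stage, 2 to 18 cm tall.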

common ragweed = assay: Test C pre-/postemergence herbicide test; assay type: in vivo, Ambrosia elatior; set-up: key to Plant response rating, Ragweed: 0 = no effect, 100 = complete control
In short: as §2

eastern black nightshade = assay: Test C pre-/postemergence herbicide test; assay type: in vivo, Solanum ptycanthum
In short: as §2

barnyardgrass [4] = assay: Test A pre-/postemergence herbicide test; assay type: in vivo, Echinochloa crus-galli
In short: as §1

yellow nutsedge = assay: Test C pre-/postemergence herbicide test; assay type: in vivo, Cyperus esculentus; conditions: for Nutsedge, Yellow plant response rating: 500 g ai/ha
In short: as §2

ducksalad = assay: Test C flooded paddy test; assay type: in vivo, Heteranthera limosa
[5] = Postemergence, 500 g ai/ha, 0 to 100 scale, 0 no effect, 100 complete control
[6] = Postemergence, 2000 g ai/ha, 0 to 100 scale, 0 no effect, 100 complete control
[7] = Preemergence, 500 g ai/ha, visual rating, 0 to 100 scale (0 no effect, 100 complete control)
[8] = Preemergence, 2000 g ai/ha, visual rating, 0 to 100 scale (0 no effect, 100 complete control)
[9] = 125 g ai/ha, scale 0 (no effect) to 100 (complete control), visual, 12 to 14 days, preemergence
[10] = Postemergence, 250 g ai/ha, scale 0 to 100, 0 no effect, 100 complete control
[11] = Preemergence, scale 0 to 100, 0 no effect, 100 complete control
[12] = postemergence, 125 g ai/ha, scale 0 to 100
[13] = postemergence, 62 g ai/ha, scale 0 to 100
[14] = 250 g ai/ha, scale 0 to 100 (0 no effect, 100 complete control), visual, 12 to 14 days, preemergence
[15] = 62 g ai/ha, scale 0 to 100 (0 no effect, 100 complete control)
[16] = 125 g ai/ha, scale of 0 to 100, 0 is no effect, 100 is complete control
[17] = 250 g ai/ha, scale of 0 to 100, 0 is no effect, 100 is complete control
[18] = 500 g ai/ha, visual rating after 12 to 14 days, scale 0 to 100 (0 no effect, 100 complete control)
[19] = Preemergence, 500 g ai/ha, scale 0 to 100, 0 no effect, 100 complete control

CCn1nc(C(C)(C)C)cc1C(=O)Nc1cccc(C(C)=NO)c1 [Compound 108]
Velvetleaf plant response rating (velvetleaf [1]; [5]): 90 | Plant response rating, Velvetleaf (velvetleaf [1]; [6]): 100 | Velvetleaf plant response rating (velvetleaf [1]; [7]): 55 | Velvetleaf plant response rating (velvetleaf [1]; [8]): 90 | Plant response rating, Velvetleaf (velvetleaf [2]; [9]): 90 | Velvetleaf plant response rating (velvetleaf [2]; Postemergence, scale 0 to 100): 90 | Plant response rating, Velvetleaf (velvetleaf [2]; [10]): 80 | Velvetleaf plant response rating (velvetleaf [2]; [11]): 100 | Plant response rating, Velvetleaf (velvetleaf [2]; [12]): 60 | Plant response rating, Velvetleaf (velvetleaf [2]; [13]): 40 | Plant response rating (0 = no effect, 100 = complete control), Cocklebur (cocklebur; 62 g ai/ha, preemergence): 20 | Plant response rating, Cocklebur (cocklebur; [9]): 30 | Plant response rating, Cocklebur (cocklebur; [14]): 30 | Cocklebur plant response rating (cocklebur; Postemergence, scale 0 to 100): 100 | Plant response rating, Cocklebur (cocklebur; [10]): 100 | Cocklebur plant response rating (cocklebur; [11]): 50 | Plant response rating, Cocklebur (cocklebur; [12]): 80 | Plant response rating, Cocklebur (cocklebur; [13]): 70 | Plant response rating (0 = no effect, 100 = complete control), Corn (corn; 62 g ai/ha, preemergence): 30 | Plant response rating, Corn (corn; [9]): 40 | Plant response rating, Corn (corn; [14]): 50 | Corn plant response rating (corn; Postemergence, scale 0 to 100): 60 | Plant response rating, Corn (corn; [10]): 50 | Corn plant response rating (corn; [11]): 50 | Plant response rating, Corn (corn; [12]): 50 | Plant response rating, Corn (corn; [13]): 50 | Barnyardgrass plant response rating (barnyardgrass [3]; [15]): 30 | Barnyardgrass plant response rating (barnyardgrass [3]; [16]): 40 | Barnyardgrass plant response rating (barnyardgrass [3]; [17]): 60 | Plant response rating, Barnyardgrass (barnyardgrass [3]; [18]): 70 | Plant response rating (0 = no effect, 100 = complete control), Crabgrass, Large (large crabgrass; 62 g ai/ha, preemergence): 100 | Plant response rating, Crabgrass, Large (large crabgrass; [9]): 100 | Plant response rating, Crabgrass, Large (large crabgrass; [14]): 100 | Crabgrass, Large plant response rating (large crabgrass; Postemergence, scale 0 to 100): 100 | Plant response rating, Crabgrass, Large (large crabgrass; [10]): 70 | Crabgrass, Large plant response rating (large crabgrass; [11]): 100 | Plant response rating, Crabgrass, Large (large crabgrass; [12]): 70 | Plant response rating, Crabgrass, Large (large crabgrass; [13]): 10 | Pigweed plant response rating (redroot pigweed; [5]): 100 | Plant response rating, Pigweed (redroot pigweed; [6]): 100 | Pigweed plant response rating (redroot pigweed; [7]): 100 | Pigweed plant response rating (redroot pigweed; [8]): 100 | Rice plant response rating (rice; [15]): 0 | Rice plant response rating (rice; [16]): 0 | Rice plant response rating (rice; [17]): 20 | Plant response rating, Rice (rice; [18]): 50 | Plant response rating (0 = no effect, 100 = complete control), Ragweed (common ragweed; 62 g ai/ha, preemergence): 20 | Plant response rating, Ragweed (common ragweed; [9]): 20 | Ragweed plant response rating (common ragweed; [19]): 90 | Plant response rating (0 = no effect, 100 = complete control), Nightshade (eastern black nightshade; 62 g ai/ha, preemergence): 100 | Plant response rating, Nightshade (eastern black nightshade; [9]): 100 | Nightshade plant response rating (eastern black nightshade; [19]): 100 | Barnyardgrass plant response rating (barnyardgrass [4]; [5]): 85 | Plant response rating, Barnyardgrass (barnyardgrass [4]; [6]): 100 | Barnyardgrass plant response rating (barnyardgrass [4]; [7]): 85 | Barnyardgrass plant response rating (barnyardgrass [4]; [8]): 90 | Plant response rating (0 = no effect, 100 = complete control), Nutsedge, Yellow (yellow nutsedge; 62 g ai/ha, preemergence): 50 | Plant response rating, Nutsedge, Yellow (yellow nutsedge; [9]): 70 | Nutsedge, Yellow plant response rating (yellow nutsedge; Postemergence, scale 0 to 100): 30 | Plant response rating, Nutsedge, Yellow (yellow nutsedge; [10]): 30 | Nutsedge, Yellow plant response rating (yellow nutsedge; [11]): 80 | Plant response rating, Nutsedge, Yellow (yellow nutsedge; [12]): 30 | Plant response rating, Nutsedge, Yellow (yellow nutsedge; [13]): 20 | Ducksalad plant response rating (ducksalad; [15]): 50 | Ducksalad plant response rating (ducksalad; [16]): 70 | Ducksalad plant response rating (ducksalad; [17]): 80 | Plant response rating, Ducksalad (ducksalad; [18]): 90
